Marks after values point to notes of the source that are not given here.
Experiments:
HIV-1 RT = molecular target: T1, HIV-1 RT (Human immunodeficiency virus type 1 group M subtype B, UniProt P03366); experiment: HIV-1 RT inhibition assay (Roche RT kit, colorimetric ELISA); assay type: biochemical; details: for inhibition at 1 µM: read-out: Inhibitory activities (%) against HIV-1 RT
T1 construct: The reaction mixture consisted of template/primer complex, 2′-deoxy-nucleotide-5′-triphosphates (dNTPs), and RT enzyme in lysis buffer; purchased Roche Applied Science, Mannheim, Germany
Text: The inhibition assay of HIV-1 RT was accomplished using the template/primer hybrid poly(A) × oligo(dT)15, digoxigenin (DIG)- and biotin-labeled nucleotides, an antibody to DIG that was conjugated to peroxidase (anti-DIG-POD), and the peroxidase substrate ABTS. The quantities of DIG- and biotin-labeled dUTP incorporated into DNA represent t HIV-1 RT activity. The HIV-RT inhibition assay was implemented using an RT assay kit (Roche Applied Science, Mannheim, Germany), and the procedures for assaying RT inhibition were performed as described in the kit protocol. […] The reaction mixture consisted of template/primer complex, 2′-deoxy-nucleotide-5′-triphosphates (dNTPs), and RT enzyme in lysis buffer with or without an inhibitor. […] The biotin-labeled dNTPs that were incorporated in the template bound to streptavidin because of the presence of RT. Unbound dNTPs were washed using a wash buffer, and anti-DIG-POD was added to the MTP. The DIG-labeled dNTPs incorporated in the template bound to the anti-DIG-POD antibody. Unbound anti-DIG-POD was also washed elaborately five times using a wash buffer. Finally, the peroxide substrate (ABST) was added to the MTP. A colored reaction product emerged during the cleavage of the substrate catalyzed by […]. The absorbance of the sample was measured at the optical density (OD) at 490 nm using the MTP (enzyme-linked immunosorbent assay [ELISA]) reader. The percentage inhibitory activities of the RT inhibitors were calculated by comparing with that of the sample without an inhibitor. The resulting color intensity was directly proportional to the RT activity. Percentage inhibitory values were calculated using the following formula: Inhibition (%) = [1–(OD value with RT and inhibitor−OD value without RT and inhibitors)/(OD value without inhibitors with RT−OD value without RT and inhibitors)] × 100.

[1] = tested on: MRC-5 (normal embryonic lung cell); experiment: In vitro cytotoxicity (MTT), normal cell line; details: for IC50: Homo sapiens, MRC5, 48 h, read-out: IC50 MRC-5
Description: (§1) Background control wells contained the same volume as the complete culture medium. […] Samples at various concentrations were added to the microplate and incubated for another 48 h. Cell viability was determined by 3(4,5-dimethylthiazol-2-yl)-2-5-diphenyl tetrazolium bromide (MTT) assay (Sig-ma-Aldrich). The reagent was dissolved in phosphate-buffered saline at 5 mg/mL and filtered to sterilize and remove the small amount of insoluble residue present in some batches of MTT. […] Subsequently, dimethyl sulfoxide (100 µL; Merck, Germany) was added to dissolve the resulting formazan by sonication. The plates were read on a microplate reader (Molecular Devices, CA, USA) using a test wavelength of 550 nm and a reference wavelength of 650 nm. XTT assay for suspension cells was used for MOLT-3 cells.

[2] = tested on: H69AR (lung cancer, multidrug resistant); experiment: In vitro cytotoxicity (MTT); assay type: cell-based, human; details: for IC50: Homo sapiens, H69AR, mean ± standard error
Description: Background control wells contained the same volume as the complete culture medium. […] The reagent was dissolved in phosphate-buffered saline at 5 mg/mL and filtered to sterilize and remove the small amount of insoluble residue present in some batches of MTT. […] Subsequently, dimethyl sulfoxide (100 µL; Merck, Germany) was added to dissolve the resulting formazan by sonication. The plates were read on a microplate reader (Molecular Devices, CA, USA) using a test wavelength of 550 nm and a reference wavelength of 650 nm.

[3] = tested on: MOLT-3 (acute lymphoblastic leukemia); experiment: In vitro cytotoxicity (XTT); details: for IC50: Homo sapiens, MOLT-3, 48 h, read-out: IC50 MOLT-3
Description: as §1

A549 (lung carcinoma) = experiment: In vitro cytotoxicity (MTT); details: for IC50: Homo sapiens, A549, 48 h, read-out: IC50 A549
Description: as §1

HepG2 (hepatocarcinoma) = experiment: In vitro cytotoxicity (MTT); details: for IC50: Homo sapiens, HepG2, 48 h, read-out: IC50 HepG2
Description: as §1

HL-60 (promyeloblast) = experiment: In vitro cytotoxicity (MTT); details: for IC50: Homo sapiens, HL-60, 48 h, read-out: IC50 HL-60
Description: as §1

[4] = tested on: HeLA (cervical carcinoma); experiment: In vitro cytotoxicity (MTT); details: for IC50: Homo sapiens, HeLa, read-out: IC50 HeLA
Description: as §1

[5] = tested on: HuCCA-1 (cholangiocarcinoma); experiment: In vitro cytotoxicity (MTT); details: for IC50: Homo sapiens, HuCC-A1, 48 h, read-out: IC50 HuCCA-1
Description: as §1

S102 (Thai liver cancer) = experiment: In vitro cytotoxicity (MTT); details: for IC50: Homo sapiens, read-out: IC50 S102
Description: as §1

[6] = tested on: T47-D (hormone-dependent breast cancer); experiment: In vitro cytotoxicity (MTT); details: for IC50: Homo sapiens, T47D, read-out: IC50 T47-D
Description: as §1

[7] = tested on: MDA-MB-231 (hormone-independent breast cancer); experiment: In vitro cytotoxicity (MTT); details: for IC50: Homo sapiens, MDA-MB-231, 48 h, read-out: IC50 MDA-MB-231
Description: as §1

[8] = at 50 µg/mL, inactive (IC50 ≥ 50 µg/mL)
[9] = normal cell line, at 50 µg/mL, inactive (IC50 ≥ 50 µg/mL)

Compound | IC50 [1] [µM] | %C percentage cytotoxicity H69AR ([2]; human, 48 h, 50 µg/mL) | IC50 [3] [µM] | %C percentage cytotoxicity A549 (A549 (lung carcinoma); [8]) | IC50 (HepG2 (hepatocarcinoma)) [µM] | IC50 (HL-60 (promyeloblast)) [µM] | IC50 ([4]; 48 h) [µM] | IC50 [5] [µM] | %C percentage cytotoxicity S102 (S102 (Thai liver cancer); [8]) | %C percentage cytotoxicity T47-D [6, 8] | %C percentage cytotoxicity MDA-MB-231 [7, 8] | inhibition at 1 µM (HIV-1 RT) [%] | IC50 ([2]; 48 h) [µM] | IC50 (S102 (Thai liver cancer); 48 h) [µM] | IC50 ([6]; 48 h) [µM] | IC50 [7] [µM] | %C percentage cytotoxicity MRC-5 [1, 9] | %C percentage cytotoxicity HepG2 (HepG2 (hepatocarcinoma); [8]) | %C percentage cytotoxicity HL-60 (HL-60 (promyeloblast); [8]) | %C percentage cytotoxicity HuCCA-1 [5, 8] | other results
4,4′-di-(2’,6’-Dimethyl-4’-formylphenoxy)-2,2′-biquinoline [Compound 7b] |  |  |  |  |  |  |  |  |  |  |  |  |  |  |  |  |  |  |  |  | Inhibitory activities (%) against HIV-1 RT (HIV-1 RT; 1 µM, mean ± standard error): 30.3 ± 2.3%
O=Cc1ccc(Oc2cc(Oc3ccc(C=O)cc3)c3ccccc3n2)cc1 [Compound 4a, 2,4-di-(4′-formylphenoxy)-quinoline] | 84.3 ± 9.6 | %C = 0.0 ^c | 25.1 ± 2.6 | %C = 40.0 ^c | 90.9 ± 2.1 | 92.4 ± 3.1 | 104 ± 7.9 | 48.1 ± 1.7 | %C = 0.4 ^c | %C = 34.0 ^c | %C = 43.3 ^c | 17.3 ± 2.4 |  |  |  |  |  |  |  |  | melting point: 164.9 to 165.5 °C
Cc1cc(C=O)cc(C)c1Oc1cc(Oc2c(C)cc(C=O)cc2C)c2ccccc2n1 [Compound 4b, 2,4-di-(2′,6′-Dimethyl-4′-formylphenoxy)-quinoline] | 60.4 ± 2 |  | 61.6 ± 0.7 |  | 50.6 ± 1.2 | 5.7 ± 2 | 5.3 ± 0.2 | 11.1 ± 0.7 |  |  |  | 42.1 ± 2.5 | 30.9 ± 5.7 | 89.4 ± 0.1 | 22.5 ± 3.3 | 15.3 ± 1.6 |  |  |  |  | melting point: 120.5 to 121 °C; IC50 (A549 (lung carcinoma)): 38.5 ± 1.3 µM
Cc1cc(/C=C\C#N)cc(C)c1Oc1cc(Nc2ccc(C#N)cc2)nc2ccccc12 [Compound 9b-cis, 4-(4′-(2″-(E, Z)-cyanovinyl)-2′,6′-dimethyl-phenoxy)-2-(4″-cyanophenyl)-aminoquinoline] |  | %C = 0.0 ^c | 52.8 ± 2.1 | %C = 1.0 ^c |  |  | 97.2 ± 5.1 |  | %C = 0.0 ^c | %C = 5.0 ^c | %C = 10.0 ^c | 32.5 ± 2.8 |  |  |  |  | %C = 0.0 ^c | %C = 9.8 ^c | %C = 42.0 ^c | %C = 10.0 | 
Cc1cc(/C=C/C#N)cc(C)c1Oc1cc(Nc2ccc(C#N)cc2)nc2ccccc12 [Compound 9b-trans, 4-(4′-(2″-(E, Z)-cyanovinyl)-2′,6′-dimethyl-phenoxy)-2-(4″-cyanophenyl)-aminoquinoline] |  | %C = 14.0 ^c |  | %C = 8.0 ^c |  |  |  |  | %C = 0.0 ^c | %C = 0.0 ^c | %C = 24.9 ^c | 35.9 ± 3.1 |  |  |  |  | %C = 28.4 ^c | %C = 42.9 ^c | %C = 17.0 ^c | %C = 8.0 ^c | %C percentage cytotoxicity MOLT-3 [3, 8]: %C = 19.0 ^c; %C percentage cytotoxicity HeLA [4, 8]: %C = 38.0 ^c
Cc1cc(/C=C\C#N)cc(C)c1Oc1cc(Nc2ccc(C#N)cn2)nc2ccccc12 [Compound 10b-cis, 4-(4′-(2″-(E, Z)-cyanovinyl)-2′,6′-dimethyl-phenoxy)-2-(5″-cyanopyridin-2″ylamino)-aminoquinoline] |  | %C = 0.0 ^c |  | %C = 0.0 ^c |  |  |  |  | %C = 0.0 ^c | %C = 0.0 ^c | %C = 0.0 ^c | 29.4 ± 3.6 |  |  |  |  | %C = 0.0 ^c | %C = 0.0 ^c | %C = 5.0 ^c | %C = 0.0 ^c | %C percentage cytotoxicity MOLT-3 [3, 8]: %C = 11.0 ^c; %C percentage cytotoxicity HeLA [4, 8]: %C = 0.0 ^c
Cc1cc(/C=C/C#N)cc(C)c1Oc1cc(Nc2ccc(C#N)cn2)nc2ccccc12 [Compound 10b-trans, 4-(4′-(2″-(E, Z)-cyanovinyl)-2′,6′-dimethyl-phenoxy)-2-(5″-cyanopyridin-2″ylamino)-aminoquinoline] |  | %C = 0.0 ^c |  | %C = 1.0 ^c |  |  |  |  | %C = 3.1 ^c | %C = 0.0 ^c | %C = 17.0 ^c | 32.4 ± 3.5 |  |  |  |  | %C = 0.0 ^c | %C = 1.0 ^c | %C = 31.0 ^c | %C = 0.0 ^c | %C percentage cytotoxicity MOLT-3 [3, 8]: %C = 2.0 ^c; %C percentage cytotoxicity HeLA [4, 8]: %C = 10.0 ^c
COc1cccc2c1C(=O)c1c(O)c3c(c(O)c1C2=O)C[C@@](O)(C(=O)CO)C[C@@H]3O[C@H]1C[C@H](N)[C@H](O)[C@H](C)O1 [Doxorubicin, reference compound] | 3.1 ± 0.5 |  | 0.02 |  | 0.6 | 0.1 | 0.4 | 0.9 |  |  |  |  | 34.3 ± 0.1 | 2.2 | 1.2 | 2.5 ± 0.1 |  |  |  |  | IC50 (A549 (lung carcinoma)): 0.6 µM
O=C1Nc2ccc(Cl)cc2[C@@](C#CC2CC2)(C(F)(F)F)O1 [EFV, efavirenz, reference compound] | 95.6 ± 6 |  | 24.6 ± 1.2 |  | 86.6 ± 3.9 | 33.7 ± 1.1 | 46.2 ± 1.3 | 59.6 ± 2.4 |  |  |  |  | 105 ± 3.4 | 93.5 ± 4.7 | 59.2 ± 0.8 | 77.7 ± 5.6 |  |  |  |  | IC50 (A549 (lung carcinoma)): 60.2 ± 1.8 µM
COc1cc([C@@H]2c3cc4c(cc3[C@@H](O[C@@H]3O[C@@H]5CO[C@@H](C)O[C@H]5[C@H](O)[C@H]3O)[C@H]3COC(=O)[C@H]23)OCO4)cc(OC)c1O [Etoposide, etoposide, reference compound] |  |  | 0.03 |  | 49.9 ± 1.1 | 0.8 ± 0.1 |  |  |  |  |  |  |  |  |  |  |  |  |  |  | 
Cc1ccnc2c1NC(=O)c1cccnc1N2C1CC1 [NVP, nevirapine, reference compound] |  |  |  |  |  |  |  |  |  |  |  | 53.4 ± 2.7 |  |  |  |  |  |  |  |  | %C percentage cytotoxicity MRC-5 ([1]; human, 48 h, 50 µg/mL): %C = 1.0 ^c; %C percentage cytotoxicity H69AR [2, 8]: %C = 8.0 ^c; %C percentage cytotoxicity MOLT-3 ([3]; human, 48 h, 50 µg/mL): %C = 29.0 ^c; %C percentage cytotoxicity A549 (A549 (lung carcinoma); human, 48 h, 50 µg/mL): %C = 18.0 ^c; %C percentage cytotoxicity HepG2 (HepG2 (hepatocarcinoma); human, 48 h, 50 µg/mL): %C = 15.4 ^c; %C percentage cytotoxicity HL-60 (HL-60 (promyeloblast); human, 48 h, 50 µg/mL): %C = 3.0 ^c; %C percentage cytotoxicity HeLA ([4]; human, 48 h, 50 µg/mL): %C = 34.0 ^c; %C percentage cytotoxicity HuCCA-1 ([5]; human, 48 h, 50 µg/mL): %C = 11.0 ^c; %C percentage cytotoxicity S102 (S102 (Thai liver cancer); human, 48 h, 50 µg/mL): %C = 3.0 ^c; %C percentage cytotoxicity T47-D ([6]; human, 48 h, 50 µg/mL): %C = 14.0 ^c; %C percentage cytotoxicity MDA-MB-231 ([7]; human, 48 h, 50 µg/mL): %C = 8.9 ^c
Cc1cc(/C=C/C#N)cc(C)c1Nc1ccnc(Nc2ccc(C#N)cc2)n1 [RPV, rilpivirine, reference compound] |  |  | 4.3 ± 0.5 | %C = 42.0 ^c | 87.4 ± 0.1 | 11.5 ± 0.8 | 11.3 ± 1.2 | 61.3 ± 1.7 |  |  |  | 97.1 ± 0.9 | 57.1 ± 2 | 22.5 ± 1.2 | 15 ± 1.3 | 25.3 ± 2.9 | %C = 14.4 ^c |  |  |  | cytotoxicity toward normal embryonic lung (MRC-5) cells, in words [1]: very low cytotoxicity; IC50 (HIV-1 RT): 0.06 µM

From publication PMC8781960, “Structural Basis of 2-Phenylamino-4-phenoxyquinoline Derivatives as Potent HIV-1 Non-Nucleoside Reverse Transcriptase Inhibitors” (Molecules, 2022)
